Data set [1] relates to SK-MEL-25. The data set is described as follows: Cytotoxicity on human cancer cells in tissue culture, crystal violet staining. It is filed as cell-based. The method, then: (§1) The anti-tumoral activity of compounds was determined in tissue culture media of pH of 6.8 and 7.4. Cells were incubated for 2 h with the test compounds, followed by 24-96 h incubation with regular, inhibitor free medium of pH 7.4. The substances were serially diluted in tissue culture medium of the desired pH. After incubation, surviving cells were stained with crystal violet and the optical density was measured in an ELISA reader.

In data set [2] the test system is Calu-6. Described as above. It is filed as cell-based. As to the method: as §1
Data set [3] concerns MCF-7. Described as above. It is filed as cell-based. The method, then:
as §1

The subject of data set [4] is SK-OV3. Described as above. It is filed as cell-based. As to the method: as §1
In data set [5] the test system is LXF-289. The description is as above. The data set is classed as cell-based. The method, then:
as §1

The test system of data set [6] is KB. Described as above. The data set is classed as cell-based. The method, then:
as §1

Data set [7] concerns six human tumor cell lines. Briefly: Cytotoxic activity in a panel of six human tumor lines (comparisons and pH quotient). The data set is classed as cell-based. The following applies: mean ± SD over the human tumor cell lines tested. As to the method: FIG. 2: Mean quotient of IC50 at pH 7.4/IC50 at pH 6.8 Mean values ±SD of IC50 at pH 7.4/IC50 at pH 6.8 for all six human tumor cell lines tested. IC50at both pH conditions were obtained for four cell lines.
Calu-6 (adenocarcinoma, lung), SK-MEL-25 (melanoma), MCF-7 (mamma carcinoma), LXF-289 (adenocarcinoma, lung), SK-OV -3 (adenocarcinoma, ovary), KB (squameous cell carcinoma, head and neck) were obtained from ATCC and were cultivated according to the instructions of the supplier at 37° C., 5% CO2 atmosphere and 100% relative humidity.
The anti-tumoral activity of compounds was determined in tissue culture media of pH of 6.8 and 7.4. Cells were incubated for 2 h with the test compounds, followed by 24-96 h incubation with regular, inhibitor free medium of pH 7.4. The substances were serially diluted in tissue culture medium of the desired pH. After incubation, surviving cells were stained with crystal violet and the optical density was measured in an ELISA reader. The concentration which was needed to reduce the cell number by 50% (IC50) was determined from dose-response curves for each compound.

The subject of data set [8] is human tumors xenotransplanted in nude mice. The following applies: cited from earlier work.
Data set [9] concerns tumor cells. The following applies: cited from earlier work.
The mark [10] stands for this setting: SK-MEL-25, pH 6.8, 2 h incubation, mean of four assays.
Setting [11] is: SK-MEL-25, pH 7.4, 2 h incubation, mean of four assays.
[12] abbreviates: Calu-6, pH 6.8, 2 h incubation, mean of four assays.
[13] abbreviates: Calu-6, pH 7.4, 2 h incubation, mean of four assays.
[14] abbreviates: MCF-7, pH 6.8, 2 h incubation, mean of four assays.
Setting [15] is: MCF-7, pH 7.4, 2 h incubation, mean of four assays.
Setting [16] is: SK-0V-3, pH 6.8, 2 h incubation, mean of four assays.
Where [17] appears, read: SK-0V-3, pH 7.4, 2 h incubation, mean of four assays.
The mark [18] stands for this setting: LXF-289, pH 6.8, 2 h incubation, mean of four assays.
Setting [19] is: LXF-289, pH 7.4, 2 h incubation, mean of four assays.
Where [20] appears, read: KB, pH 6.8, 2 h incubation, mean of four assays.
Where [21] appears, read: KB, pH 7.4, 2 h incubation, mean of four assays.

Usually IC50 stands for the concentration needed to halve the response being measured. Low readings indicate greater potency in that assay, high ones weaker potency in that assay.

Consider `N.N.[Cl][Pt][Cl]` [Cisplatin, cis-dichloro-diammine-platinum(II)], for which the IC50 in data set [1] (setting [10]) was found to be 78 ± 3.3 µM; in [1] (setting [11]), 90 ± 25 µM; in [2] (setting [12]), 16 ± 1 µM; in data set [2] (setting [13]) it was 25 ± 5.7 µM; in [3] (setting [14]) it was 108 ± 27 µM; in data set [3] (setting [15]), 160 ± 30 µM. For the same compound, the IC50 was 64 ± 0.7 µM in data set [4] (setting [16]); 90 ± 2.77 µM in data set [4] (setting [17]); 113 ± 22.3 µM in [5] (setting [18]); 83 ± 23 µM in [5] (setting [19]); 55 ± 2 µM in data set [6] (setting [20]); 52 ± 3.3 µM in [6] (setting [21]).

In the case of “Bis(O-cyclobutyl-dithiocarbonato)platinum(II) [Compound 18]”, the IC50 came to 7 ± 1 µM in [1] (setting [10]); 12 ± 3.7 µM in data set [1] (setting [11]); 3 ± 0.4 µM in data set [2] (setting [12]); 7 ± 1.2 µM in [2] (setting [13]); 11 ± 0.8 µM in data set [3] (setting [14]); 21 ± 1 µM in data set [3] (setting [15]). Also, the IC50 turned out to be 17 ± 2.9 µM in data set [4] (setting [16]); 19 ± 4.1 µM in data set [4] (setting [17]); 37 ± 1.4 µM in data set [5] (setting [18]); 44 ± 0.8 µM in [5] (setting [19]); 6 ± 0.6 µM in data set [6] (setting [20]); 20 ± 2.9 µM in [6] (setting [21]).

In the case of `CC(C)OC(=S)[S][Pt][S]C(=S)OC(C)C` [Compound 15, Bis(O-isopropyl-dithiocarbonato)platinum(II)], the IC50 worked out at 6 ± 0.4 µM in data set [1] (setting [10]); 12 ± 1.5 µM in data set [1] (setting [11]); 6 ± 0.6 µM in data set [2] (setting [12]); 10 ± 0.6 µM in [2] (setting [13]); 3 ± 0.9 µM in data set [3] (setting [14]); 7 ± 3 µM in [3] (setting [15]). The IC50 in [4] (setting [16]) worked out at 14 ± 2.1 µM; in data set [4] (setting [17]), 33 ± 8 µM; in [5] (setting [18]), 10 ± 1.7 µM; in data set [5] (setting [19]) it was 30 ± 0.4 µM; in data set [6] (setting [20]), 6 ± 0.4 µM; in [6] (setting [21]), 10 ± 0.9 µM. In data set [7], the “Mean quotient of IC50 at pH 7.4/IC50 at pH 6.8” value was found to be 2.18±0.49.

In the case of `COC(=S)[S][Pt][S]C(=S)OC` [r1, Bis(O-methyl-dithiocarbonato)platinum (II)], the IC50 amounted to 14 ± 5 µM in data set [1] (pH 6.8); 80 ± 25.9 µM in data set [1] (pH 7.4); 11 ± 2.9 µM in data set [2] (pH 6.8); 21 ± 5.6 µM in [2] (pH 7.4); 7 ± 1 µM in [3] (pH 6.8); 19 ± 4.4 µM in [3] (pH 7.4). Also, the IC50 in [4] (pH 6.8) came out at 26 ± 2.4 µM; in data set [4] (pH 7.4), 47 ± 2.9 µM; in [5] (pH 6.8) it was 39 ± 9.5 µM; in data set [5] (pH 7.4) it was 102 ± 19.3 µM; in data set [6] (pH 6.8), 20 ± 1 µM; in [6] (pH 7.4), 49 ± 2 µM.

For “Bis(O-propyl-dithiocarbonato)platinum(II) [r3]”, the IC50 in data set [1] (setting [10]) worked out at 10 ± 1.5 µM; in data set [1] (setting [11]) it was 21 ± 1.9 µM; in data set [2] (setting [12]) it was 7 ± 1.1 µM; in [2] (setting [13]) it was 21 ± 0.9 µM; in data set [3] (setting [14]) it was 4 ± 1 µM; in [3] (setting [15]), 9 ± 3 µM. Further, the IC50 in data set [4] (setting [16]) was determined as 45 ± 27 µM; in data set [4] (setting [17]), 50 ± 1 µM; in data set [5] (setting [18]), 37 ± 9 µM; in data set [5] (setting [19]), 49 ± 5 µM; in data set [6] (setting [20]), 12 ± 1 µM; in [6] (setting [21]), 38 ± 3 µM.

`CCOC(=S)[S][Pt][S]C(=S)OCC` [r2, Bis(O-ethyl-dithiocarbonato)platinum(II)]: the “toxicity on kidneys, small intestines and white blood cell count” value in data set [8] (mouse, in vivo) is reported as “significantly lower toxicity”. The “anti-tumoral activity on human tumors xenotransplanted in nude mice” value in data set [8] (versus cisplatin) was “comparable to cisplatin”. The IC50 stood at 21 ± 3 µM in data set [1] (setting [10]); 56 ± 6.2 µM in [1] (setting [11]); 21 ± 3.9 µM in data set [2] (setting [12]); 24 ± 0.9 µM in data set [2] (setting [13]); 12 ± 0.2 µM in data set [3] (setting [14]); 47 ± 5.3 µM in data set [3] (setting [15]). The IC50 in data set [4] (setting [16]) is 86 ± 3.2 µM; in data set [4] (setting [17]) it was 98 ± 16.5 µM; in data set [5] (setting [18]) it was 45 ± 8 µM; in data set [5] (setting [19]), 91 ± 24.9 µM; in [6] (setting [20]), 18 ± 4 µM; in data set [6] (setting [21]), 58 ± 5 µM. In addition, the “cytotoxicity in media of pH 6.8 as compared to pH 7.4” value in data set [9] is reported as “significantly higher cytotoxicity”.
